# Assay results from patent US20160101054A1, “SUSTAINED DELIVERY OF DRUGS FROM BIODEGRADABLE POLYMERIC MICROPARTICLES” (Yale University, priority 2008, published 2016).
# Assays:
# [1] = target: T1, EGFR (Rattus norvegicus, UniProt G3V6K6); assay: Bioactivity of AG1478: western blot of phosphorylated EGFR in FR3T3 cells after EGF; assay type: cell-based; settings: for bioactivity by western blot of activated EGFR: FR3T3 cells expressing EGFR at normal levels, concentration equal to IC50, EGF 100 ng/mL
# T1 construct: cells expressing EGFR at normal levels; endogenous in cells; host or cells: FR3T3 (Fisher rat 3T3 fibroblasts)
# Experimental: Microsphere size was ascertained using a Multisizer™ 3 Coulter Counter® and confirmed visually via SEM. […] Relative bioactivity was determined using the gray mean value for each phospho-EGFR band.
# [2] = system: EGFR; settings: in vivo; cited from earlier work
structure (smiles),measurement,setting,value
COc1cc2ncnc(Nc3cccc(Cl)c3)c2cc1OC [AG1478],bioactivity by western blot of activated EGFR,[1]; listed as non-encapsulated AG1478,89±4.5%
same,bioactivity by western blot of activated EGFR,[1]; listed as non-encapsulated inhibitor,89±2.7%
same,inhibition in FR3T3 cells,[1]; at 3 mM (~[…] polymer),greater than 95%
same,"EGFR upregulation and activation of astrocytes, survival of RGCs",[2],reverses this upregulation and activation of astrocytes and increases the survival of RGCs
